Key:
[1] = target: T1, mDMGDH (mature rat DMGDH) (Rattus norvegicus, UniProt Q63342); assay: X-ray crystal structure, […] Å; assay type: binding; conditions: covalent; histidyl(N3)-(8alpha)FAD at His84; no folate
T1 sequence (Q63342 22-857): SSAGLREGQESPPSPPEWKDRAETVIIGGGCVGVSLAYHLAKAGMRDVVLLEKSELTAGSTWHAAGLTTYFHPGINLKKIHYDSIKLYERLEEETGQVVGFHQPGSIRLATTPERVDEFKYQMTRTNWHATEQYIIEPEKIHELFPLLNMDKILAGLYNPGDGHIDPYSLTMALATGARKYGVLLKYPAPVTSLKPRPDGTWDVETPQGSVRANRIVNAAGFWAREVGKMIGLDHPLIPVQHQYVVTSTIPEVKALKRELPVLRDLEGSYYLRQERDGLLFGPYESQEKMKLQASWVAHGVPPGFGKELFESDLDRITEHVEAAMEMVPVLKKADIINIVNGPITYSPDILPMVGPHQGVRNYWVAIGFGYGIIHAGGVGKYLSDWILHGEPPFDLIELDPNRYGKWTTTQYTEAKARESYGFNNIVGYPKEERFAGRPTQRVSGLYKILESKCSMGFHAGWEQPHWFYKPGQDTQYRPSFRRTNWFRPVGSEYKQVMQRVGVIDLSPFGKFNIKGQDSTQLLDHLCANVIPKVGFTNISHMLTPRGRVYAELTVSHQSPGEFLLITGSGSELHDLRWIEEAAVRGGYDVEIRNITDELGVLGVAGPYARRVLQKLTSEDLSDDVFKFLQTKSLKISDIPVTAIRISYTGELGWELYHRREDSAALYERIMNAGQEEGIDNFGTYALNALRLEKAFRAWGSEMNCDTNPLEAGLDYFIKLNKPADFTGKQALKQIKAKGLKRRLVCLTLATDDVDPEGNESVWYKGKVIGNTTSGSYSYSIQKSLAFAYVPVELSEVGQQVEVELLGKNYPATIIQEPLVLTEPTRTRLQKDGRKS

[2] = target: T2, prDMGDH-var2 (precursor DMGDHvar-2) (Rattus norvegicus, UniProt Q63342); assay: X-ray crystal structure, […] Å; assay type: binding; conditions: covalent; histidyl(N3)-(8alpha)FAD at His84; THF also bound
T2 sequence (Q63342 1-857): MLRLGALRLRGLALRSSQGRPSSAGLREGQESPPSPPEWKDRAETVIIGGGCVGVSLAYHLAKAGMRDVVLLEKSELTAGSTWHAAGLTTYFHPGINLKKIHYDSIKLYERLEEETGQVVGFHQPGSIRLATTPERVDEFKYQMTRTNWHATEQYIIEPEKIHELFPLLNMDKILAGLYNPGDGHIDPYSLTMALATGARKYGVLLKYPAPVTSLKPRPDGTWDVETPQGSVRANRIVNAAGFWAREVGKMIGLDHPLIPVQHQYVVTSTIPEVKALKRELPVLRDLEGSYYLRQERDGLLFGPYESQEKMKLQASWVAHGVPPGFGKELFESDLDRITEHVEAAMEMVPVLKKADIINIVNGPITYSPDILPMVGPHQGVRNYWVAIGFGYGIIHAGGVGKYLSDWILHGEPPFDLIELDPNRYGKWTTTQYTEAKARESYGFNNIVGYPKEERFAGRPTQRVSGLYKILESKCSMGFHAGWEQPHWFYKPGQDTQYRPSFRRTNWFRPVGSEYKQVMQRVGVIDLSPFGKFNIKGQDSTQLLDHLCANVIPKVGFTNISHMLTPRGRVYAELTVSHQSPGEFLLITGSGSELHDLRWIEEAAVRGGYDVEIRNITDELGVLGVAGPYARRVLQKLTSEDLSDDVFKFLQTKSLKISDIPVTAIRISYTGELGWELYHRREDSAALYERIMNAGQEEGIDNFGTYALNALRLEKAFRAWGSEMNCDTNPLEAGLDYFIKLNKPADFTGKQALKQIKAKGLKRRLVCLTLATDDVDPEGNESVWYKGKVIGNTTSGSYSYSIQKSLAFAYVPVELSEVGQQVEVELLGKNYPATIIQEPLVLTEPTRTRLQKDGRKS

Compound: Cc1cc2nc3c(=O)[nH]c(=O)nc-3n(C[C@H](O)[C@H](O)[C@H](O)COP(=O)(O)OP(=O)(O)OC[C@H]3O[C@@H](n4cnc5c(N)ncnc54)[C@H](O)[C@@H]3O)c2cc1C [FAD]
- X-ray crystal structure, 2.32 Å [1]: N-terminal domain covalently binds cofactor FAD through His84
- X-ray crystal structure, 1.85 Å [2]: two covalently bound FAD molecules, two folate molecules
